Test results as given in PubChem BioAssay (NCI).
Several values for one entry are separate records, joined by “and”; a condition that tells them apart may be missing. Equal entries are not always repeated.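 1) Cells in 96-well plates. 2) Compound, 48 h, 5 concentrations. 3) Linear interpolation between surrounding doses. 4) Unreached endpoint = highest concentration. Abbreviation: GI50, concentration required for 50% inhibition of growth. TGI marks complete inhibition of growth.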

Legend:
Experiment in all cases: growth of human tumour cells (NCI), 48 h
[1] = tested on: HOP-92 NSCLC
[2] = tested on: MOLT-4 leukemia
[3] = tested on: SNB-75 CNS
[4] = tested on: OVCAR-4 ovarian
[5] = tested on: SK-MEL-5 melanoma
[6] = tested on: RPMI-8226 leukemia
[7] = tested on: K-562 leukemia
[8] = tested on: IGROV1 ovarian
[9] = tested on: COLO 205 colon
[10] = tested on: CCRF-CEM leukemia

Row | SMILES | GI50 [1] | TGI [1] | GI50 [2] | TGI [2] | GI50 [3] | TGI [3] | TGI [4] | GI50 [5] | TGI [5] | GI50 [6] | TGI [6] | GI50 [7] | TGI [7] | GI50 [8] | TGI [8] | GI50 [9] | TGI [9] | TGI [10] | GI50 [10] | GI50 [4]
1 | CC12CCC(O)CC1CCC1C2CCC2(C)C(C3=CC(=O)OC3)CCC12 (stereo not given) | 5.02 µM | 29.5 µM | > 100 µM | > 100 µM | 6.9 µM | 21.2 µM | > 73.2 µM | > 100 µM | > 100 µM | 1.27 µM | > 100 µM | > 100 µM | > 100 µM | 20.5 µM | > 71 µM | > 100 µM | > 100 µM | – | – | –
2 | CN(Cc1ccccc1)C1(N(C)Cc2ccccc2)CC1 | – | > 100 µM | – | > 100 µM | – | > 100 µM | > 100 µM | – | > 100 µM | – | – | – | > 100 µM | – | > 100 µM | – | > 100 µM | > 100 µM | – | –
3 | NC(=S)N/N=C(\C(=O)Nc1ccc(Cl)c(Cl)c1)C1=NN(c2ccccc2)C(c2cccc([N+](=O)[O-])c2)CC1=O (stereo not given) | – | – | – | 70.9 µM | – | 99.7 µM | 63 µM | – | > 100 µM | – | 14.4 µM | – | 65.5 µM | – | 72.6 µM | – | 36.3 µM | 62 µM | – | –
4 | Oc1ccc(SCc2ccc(NCc3ccccc3)cc2)cc1 | – | > 100 µM | – | 39.7 µM | – | 67.2 µM | > 100 µM | – | 47.3 µM | – | – | – | > 100 µM | – | > 100 µM | – | > 100 µM | 64.8 µM | – | –
5 | COc1cc(C(CC(OC)OC)=C(C#N)C#N)cc(OC)c1OC | – | 50 µM | – | 33.9 µM | – | 82.2 µM | – | – | 49.2 µM | – | – | – | – | – | > 100 µM | – | 26.6 µM | 59.1 µM | – | –
6 | COc1ccc(-c2nn(-c3cccc(NC(=O)Nc4cccc(C(F)(F)F)c4)c3)cc2-c2ccncc2)cc1Cl | 0.229 µM | 3 µM | 1.76 µM | 8.38 µM | 1.51 µM | 8.37 µM | – | 1.57 µM | 3.22 µM | 1.02 µM | 4.54 µM | 1.92 µM | > 100 µM | 3.73 µM | > 100 µM | 1.69 µM | 3.69 µM | 7.59 µM | 1.54 µM | –
7 | COc1cccc2c(Nc3ccc(C(=O)NCCN(C)C)cc3)cc(-c3ccccc3)nc12 | 0.832 µM | 8.86 µM | – | – | 29.5 µM | 66 µM | > 100 µM | 17.3 µM | 32.1 µM | 6.11 µM | 24.4 µM | 10.8 µM | 31.5 µM | 10.8 µM | 25.6 µM | 11.2 µM | 26.5 µM | 33.2 µM | 8.86 µM | 33 µM
8 | COc1ccc(Cn2cc(Cn3c(=O)c(-c4nc5ccccc5[nH]4)cc4ccccc43)nn2)c(OC)c1OC | 0.48 µM and 0.39 µM | 1.92 µM and 9.69 µM | 0.468 µM | > 100 µM | 0.0354 µM | 0.432 µM | > 100 µM | 0.307 µM and 0.274 µM | 1.04 µM and 1.45 µM | 0.129 µM | 1.15 µM | 0.162 µM and 0.191 µM | 50 µM and > 100 µM | 0.186 µM and 0.445 µM | 1.84 µM and 3.66 µM | – | – | – | 0.174 µM and 0.443 µM | 1.31 µM
9 | COc1ccc(/C=C/C(C(=O)O)C(=O)O)cc1 | – | > 100 µM | – | 84.8 µM | – | – | > 100 µM | – | > 100 µM | – | > 100 µM | – | > 100 µM | – | > 100 µM | – | > 100 µM | 82.3 µM | – | –
10 | CN(C)CCNC(=O)c1cccc2c1nc(-c1ccccn1)c1ccccc12 | – | 39.7 µM | – | – | – | 47.1 µM | 42.2 µM | – | 28.7 µM | – | – | – | 48.8 µM | – | 66.6 µM | – | 24.8 µM | 51.7 µM | – | –
11 | CC1=N/C(=C\c2cccc3ccccc23)C(=O)O1 | – | > 100 µM | – | > 100 µM | – | – | – | – | > 100 µM | – | > 100 µM | – | > 100 µM | – | > 100 µM | – | > 100 µM | > 100 µM | – | –
12 | CCCCCCCCCC(=O)N[C@H]1CCc2cc(OC)c(OC)c(OC)c2-c2ccc(SC)c(=O)cc21 | – | 0.0788 µM | – | > 100 µM | – | – | > 100 µM | – | 0.0826 µM | – | – | – | 29.5 µM | – | – | – | 0.0123 µM | > 100 µM | – | 10.8 µM
13 | Cc1[nH]nc(C(=O)Nc2n[nH]c3ccccc23)c1[N+](=O)[O-] | > 100 µM | > 100 µM | > 62.5 µM | 97.7 µM | 64.1 µM | > 100 µM | > 100 µM | > 60.1 µM | > 100 µM | > 71.5 µM | > 100 µM | > 100 µM | > 100 µM | > 100 µM | > 100 µM | 63.4 µM | > 100 µM | – | – | > 100 µM
